Data taken from US7329401B2, “Cyclooxygenase-2 selective agents useful as imaging probes and related methods” (The Regents of the University of California, priority 2002, dated 2008).

Experiments:
[1] = molecular target: T1, cyclooxygenase-2 (Mus musculus, UniProt Q05769); assay: Cell-based assay for cyclooxygenase-2 inhibition (PGE2 ELISA, LPS-treated RAW264.7 macrophages); conditions: lipopolysaccharide-treated murine RAW264.7 macrophages
T1 sequence (Q05769 18-604): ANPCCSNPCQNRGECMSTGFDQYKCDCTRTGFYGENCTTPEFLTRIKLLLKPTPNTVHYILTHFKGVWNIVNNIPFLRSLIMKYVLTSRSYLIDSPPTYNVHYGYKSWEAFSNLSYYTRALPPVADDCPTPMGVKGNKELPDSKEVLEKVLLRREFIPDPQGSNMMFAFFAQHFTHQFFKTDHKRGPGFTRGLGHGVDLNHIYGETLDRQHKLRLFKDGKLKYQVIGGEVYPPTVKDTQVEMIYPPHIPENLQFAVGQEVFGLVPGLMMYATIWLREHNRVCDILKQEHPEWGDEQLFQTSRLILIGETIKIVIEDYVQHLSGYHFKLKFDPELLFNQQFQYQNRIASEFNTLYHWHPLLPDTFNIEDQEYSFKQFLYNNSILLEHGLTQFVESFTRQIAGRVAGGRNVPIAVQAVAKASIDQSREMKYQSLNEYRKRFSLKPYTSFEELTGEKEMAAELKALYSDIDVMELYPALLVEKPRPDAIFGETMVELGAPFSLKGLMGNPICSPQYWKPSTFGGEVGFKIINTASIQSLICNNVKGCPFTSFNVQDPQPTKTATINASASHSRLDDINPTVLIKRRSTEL
Procedure: RAW 264.7 cells are a murine macrophage cell line that can be induced to express cyclooxygenase-2 by exposure to bacterial endotoxin/lipopolysaccharide (LPS). For this assay, RAW964.7 cells were plated at 90% confluence in 12-well cell culture plates. After attachment, cells were switched to 1 mL of endotoxin-free Dulbecco's Modified Eagle's Medium with high glucose and 0.5% calf serum overnight. Thirty minutes prior to induction of cyclooxygenase-2 expression, varying concentrations of the test compound (ranging from 20 nM to 0.3 nM) were added. NS-398 (a known cyclooxygenase-2 inhibitor) was used at 10 μM, as a control. Inhibitors or vehicle were added to the cultures by removing the existing culture medium and adding fresh medium containing inhibitor or vehicle. Cells were treated with LPS (final concentration, 10 ng per mL) to induce cyclooxygenase-2 expression. After eight hours, the media were collected from the cultures and frozen on dry ice. Cells were harvested and lysed. Protein determinations were performed to normalize PGE2 values to total protein in each well. PGE2 ELISA assays were performed with a commercial kit (Amersham).
The assay was carried out using lipopolysaccharide-treated murine RAW264.7 macrophages as described previously.

Cc1onc(-c2ccccc2)c1-c1ccc(S(N)(=O)=O)c(F)c1 [compound 4, 2-Fluoro-4-(5-methyl-3-phenylisoxazol-4-yl)benzenesulfonamide]
melting point: 192 to 195 °C (dec.) | IC50 [1]: 1.25 to 2.5 nM
